Patent publication US11220505B2, “5-hydroxytryptamine receptor 7 modulators and their use as therapeutic agents” (Temple University-Of the Commonwealth System of Higher …, priority 2017, dated 2022)

target: Serotonin 5-HT7 Receptors (Homo sapiens (Human), UniProt P34969); assay: Radiolabel Binding Studies for Serotonin 5-HT7 Receptors, Method 2 ([3H]-5HT competition; Ki and percent inhibition at 10 μM); settings: @ 10 μM single concentration; read-out: 5-HT7 percent inhibition of radioligand binding
Experimental: Radiolabel Binding Studies for Serotonin 5-HT7 Receptors, Method 2:
A solution of the compound of the disclosure to be tested is prepared as a 1-mg/ml stock in Assay Buffer or DMSO according to its solubility. A similar stock of the reference compound chlorpromazine is also prepared as a positive control. Eleven dilutions (5×assay concentration) of the compound of the disclosure and chlorpromazine are prepared in the Assay Buffer by serial dilution to yield final corresponding assay concentrations ranging from 10 pM to 10 μM.
A stock concentration of 5 nM [^3H]-5-Hydroxytryptamine ([^3H]-5HT) is prepared in 50 mM Tris-HCl, 10 mM MgCl2, 1 mM EDTA, pH 7.4 (Assay Buffer). Aliquots (50 μl) of radioligand are dispensed into the wells of a 96-well plate containing […] of Assay Buffer. Duplicate 50-μl aliquots of the compound of the disclosure test and chlorpromazine positive control reference compound serial dilutions are added.
Membrane fractions of cells expressing recombinant 5HT7 receptors (50 μL) are dispensed into each well. The membranes are prepared from stably transfected cell lines expressing 5HT7 receptors cultured on 10-cm plates by harvesting PBS-rinsed monolayers, resuspending and lysing in chilled, hypotonic 50 mM Tris-HCl, pH 7.4, centrifuging at 20,000×g, decanting the supernatant and storing at −80° C.; the membrane preparations are resuspended in 3 ml of chilled Assay Buffer and homogenized by several passages through a 26 gauge needle before using in the assay.
The 250-μl reactions are incubated at room temperature for 1.5 hours, then harvested by rapid filtration onto 0.3% polyethyleneimine-treated, 96-well filter mats using a 96-well Filtermate harvester. Four rapid 500-μl washes are performed with chilled Assay Buffer to reduce non-specific binding. The filter mats are dried, then scintillant is added to the filters and the radioactivity retained on the filters is counted in a Microbeta scintillation counter.
Raw data (dpm) representing total radioligand binding (i.e., specific+non-specific binding) are plotted as a function of the logarithm of the molar concentration of the competitor (i.e., test or reference compound). Non-linear regression of the normalized (i.e., percent radioligand binding compared to that observed in the absence of test or reference compound) raw data is performed in Prism 4.0 (GraphPad Software) using the built-in three parameter logistic model describing ligand competition binding to radioligand-labeled sites: y=bottom+[(top−bottom)/(1+10x−log IC50)] where bottom equals the residual radioligand binding measured in the presence of 10 μM reference compound (i.e., non-specific binding) and top equals the total radioligand binding observed in the absence of competitor. The log IC50 (i.e., the log of the ligand concentration that reduces radioligand binding by 50%) is thus estimated from the data and used to obtain the Ki by applying the Cheng-Prusoff approximation: Ki=IC50/(1+[ligand]/KD) where [ligand] equals the assay radioligand concentration and KD equals the affinity constant of the radioligand for the target receptor.
Compounds of the disclosure are also screened at a single concentration of 10 μM using the same method described for the Radiolabel Binding Studies for Serotonin 5HT7 receptors to determine the percent inhibition of [^3H]-5HT binding.

Chain of Serotonin 5-HT7 Receptors (P34969 whole entry): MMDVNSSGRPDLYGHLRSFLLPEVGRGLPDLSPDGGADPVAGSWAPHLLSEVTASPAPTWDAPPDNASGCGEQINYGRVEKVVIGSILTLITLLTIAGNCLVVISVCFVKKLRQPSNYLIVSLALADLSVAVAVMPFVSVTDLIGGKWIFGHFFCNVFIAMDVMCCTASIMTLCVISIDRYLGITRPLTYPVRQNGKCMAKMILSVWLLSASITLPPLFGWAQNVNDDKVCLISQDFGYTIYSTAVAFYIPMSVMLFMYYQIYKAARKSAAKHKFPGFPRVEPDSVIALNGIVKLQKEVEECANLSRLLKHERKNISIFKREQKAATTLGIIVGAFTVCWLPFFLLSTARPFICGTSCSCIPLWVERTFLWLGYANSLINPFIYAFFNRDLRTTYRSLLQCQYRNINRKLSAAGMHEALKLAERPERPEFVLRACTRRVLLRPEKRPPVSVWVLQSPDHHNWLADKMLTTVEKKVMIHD

Q: With `CCC1(CC)CC(CCN2CC3CN(c4ccc(C)cc4)CC3C2)OC1=O` (stereo not shown) [Entry 6] as the compound, how does the inhibition at 10 µM read?
A: Its inhibition at 10 µM is 44.5%.

Q: With `CCC1(CC)CC(CCN2CC3CN(c4ccc(C#N)cc4)CC3C2)OC1=O` (stereo not shown) [Entry 9] as the compound, how does the inhibition at 10 µM read?
A: The inhibition at 10 µM was 26.3%.

Q: With `CCC1(CC)CC(CCN2CC3CN(c4cccc(C#N)c4)CC3C2)OC1=O` (stereo not shown) [Entry 8] as the compound, how does the inhibition at 10 µM read?
A: The inhibition at 10 µM was 48.9%.

Q: `CCC1(CC)CC(CCN2CC3CN(c4ccc(OC)cc4)CC3C2)OC1=O` (stereo not shown) [Entry 12] was tested. Which inhibition at 10 µM did it give?
A: The inhibition at 10 µM was 24.5%.

Q: For `CCC1(CC)CC(CCN2CC3CN(c4cccc(O)c4)CC3C2)OC1=O` (stereo not shown) [Entry 14], which inhibition at 10 µM is on record?
A: The inhibition at 10 µM was 39.8%.

same assay, conditions: radiolabel binding, 5HT7 receptors

Q: For `CC(C)c1ccccc1N1CC2CN(CCC3CC4(CCCCC4)C(=O)O3)CC2C1` (stereo not shown) [Entry 3], which IC50 is on record?
A: The IC50 was 268 nM.

Q: Which IC50 does the source give for `CCC1(CC)CC(CCN2CC3CN(c4ccccc4C#N)CC3C2)OC1=O` (stereo not shown) [Entry 7] here?
A: Its IC50 is 8.9 nM.

Q: `CCC1(CC)CC(CCN2CC3CN(c4ccc(O)cc4)CC3C2)OC1=O` (stereo not shown) [Entry 15] was tested. Which IC50 did it give?
A: Its IC50 is 130 nM.

Q: Which IC50 does the source give for `CCC1(CC)CC(CCN2CC3CN(c4cccc(C)c4)CC3C2)OC1=O` (stereo not shown) [Entry 5] here?
A: Its IC50 is 104 nM.

Q: `CCC1(CC)CC(CCN2CC3CN(c4ccccc4C)CC3C2)OC1=O` (stereo not shown) [Entry 4] was tested. Which IC50 did it give?
A: The IC50 was 179 nM.

Q: Which IC50 does the source give for `CCC1(CC)CC(CCN2CC3CN(c4ccccc4)CC3C2)OC1=O` (stereo not shown) [Entry 1] here?
A: Its IC50 is 64 nM.

Q: How did the IC50 turn out when `CCC1(CC)CC(CCN2CC3CN(c4cccc(OC)c4)CC3C2)OC1=O` (stereo not shown) [Entry 11] was run?
A: The IC50 was 911 nM.

Q: For `CCC1(CC)CC(CCN2CC3CN(c4ccccc4N4CCOCC4)CC3C2)OC1=O` (stereo not shown) [Entry 16], which IC50 is on record?
A: The IC50 was 160 nM.

Q: Which IC50 does the source give for `CCC1(CC)CC(CCN2CC3CN(c4ccccc4C(C)C)CC3C2)OC1=O` (stereo not shown) [Entry 2] here?
A: The IC50 was 277 nM.

Q: With `CCC1(CC)CC(CCN2CC3CN(c4ccccc4OC)CC3C2)OC1=O` (stereo not shown) [Entry 10] as the compound, how does the IC50 read?
A: Its IC50 is 151 nM.

Q: How did the IC50 turn out when `CCC1(CC)CC(CCN2CC3CN(c4ccccc4O)CC3C2)OC1=O` (stereo not shown) [Entry 13] was run?
A: Its IC50 is 227 nM.
